“And” between values parts separate entries of the source, which are not always exact repeats. Identical values can stand only once. “Also recorded” adds a separate entry of the source.
Columns and labels:
[1] = system: type II collagen-induced arthritis; assay: Prevention of type II collagen-induced arthritis in mice; format: in vivo, mouse (DBA/1J)
Description: The purpose of this study was to test PIP[4,4,4] in an experimental model of arthritis in DBA/1J mice by observing the onset, duration and remission of inflammation utilizing type II collagen. Twenty male DBA/1J mice, equally divided into two groups of ten animals, were immunized with a single intradermal injection of native type II chick collagen (100 μg/animal, intradermally) in Complete Freund's Adjuvant (CFA) on Day 0. […] On Day 21, both groups received a challenge dose of type II collagen (100 μg/animal, intradermally at the base of the tail, in 50 μl CFA). Daily joint measurements were recorded once per day on Days 20-40. Joints were measured using a constant tension caliper (Mitutoyo Digimatic Thickness Gauge). All mice were measured before the start of the study (Day -1) to obtain baseline readings at three joints on the right and left hindlimb (paw thickness, ankle width and knee width) and two joints of the right and left forelimb (paw thickness and elbow width). […] Four of ten mice treated with PIP[4,4,4] died or were sacrificed in extremis, during the treatment period.

[2] = system: BALB/c splenocytes stimulated with Con A; assay: Mitogen response to Con A (T cell proliferation); format: cell-based, mouse (BALB/c)
Description: (§1) This study examined the potential immunomodulatory activities of PIP[4,4,4] on mouse spleen cells using in vitro techniques. The effect of the compound on the ability of murine splenocytes to respond to the […] mitogen concanavalin A (Con A) and the B cell mitogen lipopolysaccharide (LPS) was studied. […] In addition, the compound was tested for its effect on the mixed lymphocyte response (MLR). The MLR is an in vitro manifestation of cell-mediated immunity in which T cells respond to differences in major histocompatibility complex (MHC) class II molecules (Ia antigens) expressed on foreign or allogeneic leukocytes (primarily B cells and […]/monocytes).
(§2) a. Preparation of cells--Under sterile conditions, spleens were removed from BALB/c (H-2^d) and CBA/J (H-2^k) mice. BALB/c splenocytes were used as responder cells in the mitogen assays and the MLR assays, whereas CBA/J cells were used as stimulator cells in the MLR assays. […] Cells were exposed to various concentrations of the test compounds for the entire culture period. The initial dilutions in medium were filter sterilized to maintain aseptic conditions.
(§3) b. Mitogen assays--Con A and LPS were obtained from Sigma Chemical Co. (St. Louis, Mo., U.S.A.). 2×10^5 BALB/c splenocytes were added per well. […] Triplicate wells were set up in 96-well flat-bottom microtiter plates for all treated cultures and positive controls (100% of control) were performed in replicates of nine wells. Plates were incubated at 37° C. in a humidified CO2 incubator for 3 days, pulsed with 1 μCi ^3 H-TdR/well for 6-16 hours, harvested and counted in a liquid scintillation counter. All data were processed using Lotus 1-2-3 and SigmaPlot software.

[3] = system: BALB/c splenocytes stimulated with LPS; assay: Mitogen response to LPS (B cell proliferation); format: cell-based, mouse (BALB/c)
Description: as §1, §2, §3

[4] = system: adjuvant-induced arthritis
[5] = system: adjuvant-induced arthritis; assay: Adjuvant-induced arthritis model in Lewis rats (Table 7); conditions: p.o. 5 days, DiPIPs 100 mg/kg, Voltaren and indomethacin 6 mg/kg
Description: Four groups consisting of 6 male Lewis rats weighing 150-200 g were injected subcutaneously at the base of the tail with 0.1 ml of CFA. Drugs to be assayed were administered 5 days beginning on the day of the adjuvant injection. The paw volume of the right and left rear paw of each rat were measured on the day of adjuvant injection and at regular intervals for 30 days thereafter.
The emulsion was injected subcutaneously at the base of the tail and induced the arthritic state. Measurements of paw volume were made for 30 days to monitor paw swelling. Drug treatment began on Day 0.
Four groups consisting of 10 male Lewis rats weighing 150-200 g were injected subcutaneously at the base of the tail with 0.1 ml of CFA. Drugs to be assayed were administered for 5 days beginning on the day of the adjuvant injection.

[6] = system: phenylquinone (P.Q.) writhing; assay: Analgesic activity, phenylquinone writhing; format: in vivo, mouse (ICR)
Description: The method of Siegmund et al [Proc. Soc. Exp. Biol. Med., Vol. 95, pages 729-731 (1957)] was used to measure the analgesic activity of PIP[4,4,4]. Groups of 10 male ICR mice weighing 22±2 g were employed. Various doses of test compound, dissolved in a vehicle of distilled water, were administered intraperitoneally. The control group received vehicle alone. […] The mean±SEM number of writhes in each treatment group was calculated and unpaired Student's t test was applied for comparison between vehicle and treated groups. Differences were considered significant when P<0.05.

[7] = system: carrageenan-induced edema in rat paw; assay: Inhibition of carrageenan-induced paw edema in rats
[8] = 100 mg/kg p.o. daily for 5 consecutive days
[9] = Day 19, individual rat, p.o. × 5: PIP[4,4,4] 100, hydrocortisone 30, indomethacin 5 mg/kg

C(CCNCC1CCNCC1)CNCC1CCNCC1 [PIP[4,4,4], N,N'-Bis(4-piperidinylmethyl)-1,4-butanediamine]
Toxicity of compound administration (in words) ([1]; 75 mg/kg i.p. daily, dosage decreased to 50 mg/kg on Day 26): overt toxicity
Day on which decrease in joint measurements first evident ([1]; i.p. daily from Day 20, 75 mg/kg): ≤ 25 days
Mice died or sacrificed in extremis ([1]; i.p. daily from Day 20, 75 then 50 mg/kg, during treatment period): Four of ten
Joint measurements / degree of inflammation (in words) ([1]; i.p. daily from Day 20, 75 then 50 mg/kg, vs saline control): Joint measurements decreased; also recorded: significantly less than that in mice treated with equal volumes of saline (control)
Effect on Con A response (in words) [2]: no inhibitory effect on the Con A response
Proliferative response (CPM), Mean ± SD ([2]; Con A 3 μg/ml, drug 0.010 μm): 343389 ± 21927 CPM
Proliferative response (CPM), Mean ± SD ([2]; Con A 3 μg/ml, drug 0.100 μm): 333419 ± 31211 CPM
Proliferative response (CPM), Mean ± SD ([2]; Con A 3 μg/ml, drug 1.000 μm): 340397 ± 25586 CPM
Proliferative response (CPM), Mean ± SD ([2]; Con A 3 μg/ml, drug 10.000 μm): 365771 ± 2876 CPM
Proliferative response (CPM), Mean ± SD ([2]; Con A 3 μg/ml, drug 100.000 μm): 313504 ± 279 CPM
Proliferative response (CPM), Mean ± SD ([2]; Con A 3 μg/ml, drug 1000.000 μm): 273418 ± 14954 CPM
activity at 0.01 µM ([2]; Mus musculus, Splenocyte, 72 h, Con A 3 μg/ml, drug 0.010 μm, read-out: % Control): 173%
activity at 0.1 µM ([2]; Mus musculus, Splenocyte, 72 h, Con A 3 μg/ml, drug 0.100 μm, read-out: % Control): 168%
activity at 1 µM ([2]; Mus musculus, Splenocyte, 72 h, Con A 3 μg/ml, drug 1.000 μm, read-out: % Control): 172%
activity at 10 µM ([2]; Mus musculus, Splenocyte, 72 h, Con A 3 μg/ml, drug 10.000 μm, read-out: % Control): 185%
activity at 100 µM ([2]; Mus musculus, Splenocyte, 72 h, Con A 3 μg/ml, drug 100.000 μm, read-out: % Control): 158%
activity at 1000 µM ([2]; Mus musculus, Splenocyte, 72 h, Con A 3 μg/ml, drug 1000.000 μm, read-out: % Control): 138%
Proliferative response (CPM), Mean ± SD ([3]; LPS 25 μg/ml, drug 0.010 μm): 175516 ± 10793 CPM
Proliferative response (CPM), Mean ± SD ([3]; LPS 25 μg/ml, drug 0.100 μm): 174197 ± 23886 CPM
Proliferative response (CPM), Mean ± SD ([3]; LPS 25 μg/ml, drug 1.000 μm): 192921 ± 32628 CPM
Proliferative response (CPM), Mean ± SD ([3]; LPS 25 μg/ml, drug 10.000 μm): 187500 ± 8089 CPM
Proliferative response (CPM), Mean ± SD ([3]; LPS 25 μg/ml, drug 100.000 μm): 117804 ± 14014 CPM
Proliferative response (CPM), Mean ± SD ([3]; LPS 25 μg/ml, drug 1000.000 μm): 83427 ± 18281 CPM
activity at 0.01 µM ([3]; Mus musculus, Splenocyte, 72 h, LPS 25 μg/ml, drug 0.010 μm, read-out: % Control): 100%
activity at 0.1 µM ([3]; Mus musculus, Splenocyte, 72 h, LPS 25 μg/ml, drug 0.100 μm, read-out: % Control): 99%
activity at 1 µM ([3]; Mus musculus, Splenocyte, 72 h, LPS 25 μg/ml, drug 1.000 μm, read-out: % Control): 110%
activity at 10 µM ([3]; Mus musculus, Splenocyte, 72 h, LPS 25 μg/ml, drug 10.000 μm, read-out: % Control): 106%
activity at 100 µM ([3]; Mus musculus, Splenocyte, 72 h, LPS 25 μg/ml, drug 100.000 μm, read-out: % Control): 67%
activity at 1000 µM ([3]; Mus musculus, Splenocyte, 72 h, LPS 25 μg/ml, drug 1000.000 μm, read-out: % Control): 47%
Effect on LPS response (in words) ([3]; suppression in the 1-100 μm range): some inhibition of the LPS response; also recorded: some dose-dependent suppression
Acute and late phase swelling (in words) [4, 8]: reduced both part of the acute phase and inhibited the development of the late phase swelling in the contralateral paw
Signs of polyarthritis in the paws (in words) [4, 8]: did not prevent the appearance of signs of polyarthritis in the paws
Inhibition % B (5-0) ([4]; 5th day after 5 doses, p.o.: PIP[4,4,4] 100, hydrocortisone 30, indomethacin 5 mg/kg, >30% significant): 26%
Net swelling of paw volume A (1-0), average ([4]; Day 1 - Day 0, average, p.o. × 5: PIP[4,4,4] 100, hydrocortisone 30, indomethacin 5 mg/kg): 0.74 mL
Net swelling of paw volume B (5-0), average ([4]; Day 5 - Day 0, average, p.o. × 5: PIP[4,4,4] 100, hydrocortisone 30, indomethacin 5 mg/kg): 1.22 mL
Net swelling of paw volume B (5-0) ([4]; Day 5 - Day 0, individual rat, p.o. × 5: PIP[4,4,4] 100, hydrocortisone 30, indomethacin 5 mg/kg): 1.17 mL and 1.49 mL and 1.04 mL and 1.37 mL and 1.03 mL
Net swelling of paw volume C (5-1), average ([4]; Day 5 - Day 1, average, p.o. × 5: PIP[4,4,4] 100, hydrocortisone 30, indomethacin 5 mg/kg): 0.48 mL
Net swelling of paw volume C (5-1) ([4]; Day 5 - Day 1, individual rat, p.o. × 5: PIP[4,4,4] 100, hydrocortisone 30, indomethacin 5 mg/kg): 0.34 mL and 0.70 mL and 0.50 mL and 0.52 mL
Polyarthritis E (ears) [4, 9]: -
Polyarthritis N (noses) [4, 9]: -
Polyarthritis P (paws) [4, 9]: +
Polyarthritis T (tails) [4, 9]: -
B.W. Gain (18-0), average ([4]; average, p.o. × 5: PIP[4,4,4] 100, hydrocortisone 30, indomethacin 5 mg/kg): 25 g
Inhibition % A (1-0) ([4]; first day, after one dose, p.o.: PIP[4,4,4] 100, hydrocortisone 30, indomethacin 5 mg/kg, >30% significant): 11%
B.W. Gain (18-0) ([4]; individual rat, p.o. × 5: PIP[4,4,4] 100, hydrocortisone 30, indomethacin 5 mg/kg): 20 g and 35 g and 5 g and 30 g
Inhibition % C (5-1) ([4]; paw volume change Day 1 to Day 5, p.o. × 5: PIP[4,4,4] 100, hydrocortisone 30, indomethacin 5 mg/kg, >30% significant): 41%
Net swelling of paw volume D (14-0), average ([4]; untreated paw, Day 14 - Day 0, average, p.o. × 5: PIP[4,4,4] 100, hydrocortisone 30, indomethacin 5 mg/kg): 0.29 mL
Net swelling of paw volume D (14-0) ([4]; untreated paw, Day 14 - Day 0, individual rat, p.o. × 5: PIP[4,4,4] 100, hydrocortisone 30, indomethacin 5 mg/kg): 0.25 mL and 0.43 mL and 0.23 mL and 0.34 mL and 0.20 mL
Inhibition % D (14-0) ([4]; untreated paw, Day 14 relative to Day 0, p.o. × 5: PIP[4,4,4] 100, hydrocortisone 30, indomethacin 5 mg/kg, >30% significant): 36%
Inhibition % F (18-14) ([4]; untreated paw, Day 14 to Day 18, p.o. × 5: PIP[4,4,4] 100, hydrocortisone 30, indomethacin 5 mg/kg, >30% significant): 47%
Net swelling of paw volume E (18-0), average ([4]; untreated paw, Day 18 - Day 0, average, p.o. × 5: PIP[4,4,4] 100, hydrocortisone 30, indomethacin 5 mg/kg): 0.45 mL
Net swelling of paw volume E (18-0) ([4]; untreated paw, Day 18 - Day 0, individual rat, p.o. × 5: PIP[4,4,4] 100, hydrocortisone 30, indomethacin 5 mg/kg): 0.35 mL and 0.55 mL and 0.37 mL and 0.45 mL and 0.53 mL
Net swelling of paw volume F (18-14), average ([4]; untreated paw, Day 18 - Day 14, average, p.o. × 5: PIP[4,4,4] 100, hydrocortisone 30, indomethacin 5 mg/kg): 0.16 mL
Net swelling of paw volume F (18-14) ([4]; untreated paw, Day 18 - Day 14, individual rat, p.o. × 5: PIP[4,4,4] 100, hydrocortisone 30, indomethacin 5 mg/kg): 0.10 mL and 0.12 mL and 0.14 mL and 0.11 mL and 0.33 mL
Inhibition % E (18-0) ([4]; untreated paw, Day 18 relative to Day 0, p.o. × 5: PIP[4,4,4] 100, hydrocortisone 30, indomethacin 5 mg/kg, >30% significant): 40%
Weight gain reductions (in words) ([4]; vs vehicle-treated animals, 18 day study): did not affect weight gain reductions
% FINAL INHIBITION ([5]; Day 28-0): 58%
FINAL DAY 28-0 (paw volume) [5]: .801
INITIAL DAY 14-0 (paw volume) [5]: .496
% Inhibition (writhing) ([6]; 100 mg/kg i.p.): 79%
# Writhes (X ± SEM) ([6]; 100 mg/kg i.p., P.Q. 2 mg/kg i.p. 30 min post dosing, **P < 0.01): 3 ± 1 # WRITHES
Analgesic activity (in words) ([6]; i.p., compared with vehicle control): exhibited analgesic activity
Acute anti-inflammatory activity (in words) ([7]; 30 mg/kg intraperitoneally): significantly reducing the extent of carrageenan-induced paw edema
% Edema inhibition ([7]; vs vehicle control, aspirin 150 mg/kg p.o., hydrocortisone 25 mg/kg p.o., PIP[4,4,4] 30 mg/kg i.p., >30% significant): 58%

Reference: patent publication US5843959A, “Methods and bicyclic polyamine compositions for the treatment of inflammation” (University of Florida Research Foundation, Inc., priority 1997, dated 1998)
